Results taken from ChEMBL document CHEMBL6127049, “Discovery of the selective and nanomolar inhibitor of DPP-4 more potent than sitagliptin by structure-guided rational design” (Eur J Med Chem, 2024).
Each block holds one compound with its values, some of them ahead of it. Calls of active or inactive are those of the source. The calls are words filed in the database; no cut-off is given here.

Columns and labels:
Dipeptidyl peptidase 4 = Dipeptidyl peptidase 4 (Homo sapiens, UniProt P27487); test: Inhibition of DPP4 (unknown origin) assessed as hydrolysis rate using Gly-pro-p-nitroanilide as substrate measured after 20 mins incubation by fluorometric assay
Rattus norvegicus [1] = test: Anti-diabetic activity in normal Wistar rat model assessed as blood glucose level at 10 mg/kg, po followed by treated administered 3 mg/kg orally measured after 120 mins by Oral glucose tolerance test (reference value: 126.5 + /- 3.90 mg/dL); type: functional; conditions: 2 h
Rattus norvegicus [2] = test: Reduction of alkaline phosphatase (ALP) level in STZ-induced type 2 diabetes male Wistar albino rat model at 20 mg/kg, po measured after 4 weeks by hepatic function test; type: functional, organism-based
Rattus norvegicus [3] = test: Antihyperlipidemic effect in STZ-induced type 2 diabetes male Wistar albino rat model assessed as LDL level at 10 mg/kg, po measured after 4 weeks (reference value: 184.65 +/- 4.57 mg/dL); type: functional
Rattus norvegicus [4] = test: Antihyperlipidemic effect in STZ-induced type 2 diabetes male Wistar albino rat model assessed as triglyceride level at 20 mg/kg, po measured after 4 weeks (reference value: 190.23 +/- 4.37 mg/dL); type: functional
Rattus norvegicus [5] = test: Antihyperlipidemic effect in STZ-induced type 2 diabetes male Wistar albino rat model assessed as HDL level at 20 mg/kg, po measured after 4 weeks (reference value: 25.54 +/- 2.62 mg/dL); type: functional
Rattus norvegicus [6] = test: Antihyperlipidemic effect in STZ-induced type 2 diabetes male Wistar albino rat model assessed as total cholesterol level at 10 mg/kg, po measured after 4 weeks (reference value: 227.04 +/- 4.10 mg/dL); type: functional
Rattus norvegicus [7] = test: Anti-diabetic activity in normal Wistar rat model assessed as blood glucose level at 10 mg/kg, po followed by treated administered 3 mg/kg orally measured after 60 mins by Oral glucose tolerance test (reference value: 153.74 + /- 3.94 mg/dL); type: functional; conditions: 1 h
Rattus norvegicus [8] = test: Anti-diabetic activity in normal Wistar rat model assessed as blood glucose level at 10 mg/kg, po followed by treated administered 3 mg/kg orally measured immediately after administration by Oral glucose tolerance test (reference value: 105.12 mg/dL); type: functional
Rattus norvegicus [9] = test: Anti-diabetic activity in normal Wistar rat model assessed as blood glucose level at 20 mg/kg, po followed by treated administered 3 mg/kg orally measured after 60 mins by Oral glucose tolerance test (reference value: 153.74 + /- 3.94 mg/dL); type: functional; conditions: 1 h
Rattus norvegicus [10] = test: Anti-diabetic activity in normal Wistar rat model assessed as blood glucose level at 20 mg/kg, po followed by treated administered 3 mg/kg orally measured immediately after administration by Oral glucose tolerance test (reference value: 105.12 mg/dL); type: functional
Rattus norvegicus [11] = test: Anti-diabetic activity in normal Wistar rat model assessed as blood glucose level at 20 mg/kg, po followed by treated administered 3 mg/kg orally measured after 120 mins by Oral glucose tolerance test (reference value: 126.5 + /- 3.90 mg/dL); type: functional; conditions: 2 h
Rattus norvegicus [12] = test: Reduction of serum glutamate oxaloacetate transaminase (SGOT) level in STZ-induced type 2 diabetes male Wistar albino rat model at 20 mg/kg, po measured after 4 weeks by hepatic function test; type: functional, organism-based
Rattus norvegicus [13] = test: Antihyperlipidemic effect in STZ-induced type 2 diabetes male Wistar albino rat model assessed as HDL level at 10 mg/kg, po measured after 4 weeks (reference value: 25.54 +/- 2.62 mg/dL); type: functional
Rattus norvegicus [14] = test: Anti-diabetic activity in normal Wistar rat model assessed as blood glucose level at 20 mg/kg, po followed by treated administered 3 mg/kg orally measured after 30 mins by Oral glucose tolerance test (reference value: 176.14 + /- 4.04 mg/dL); type: functional; conditions: 0.5 h
Rattus norvegicus [15] = test: Anti-diabetic activity in normal Wistar rat model assessed as blood glucose level at 10 mg/kg, po followed by treated administered 3 mg/kg orally measured after 90 mins by Oral glucose tolerance test (reference value: 134.11 + /- 4.64 mg/dL); type: functional; conditions: 1.5 h
Rattus norvegicus [16] = test: Antihyperlipidemic effect in STZ-induced type 2 diabetes male Wistar albino rat model assessed as triglyceride level at 10 mg/kg, po measured after 4 weeks (reference value: 190.23 +/- 4.37 mg/dL); type: functional
Rattus norvegicus [17] = test: Anti-diabetic activity in normal Wistar rat model assessed as blood glucose level at 10 mg/kg, po followed by treated administered 3 mg/kg orally measured after 30 mins by Oral glucose tolerance test (reference value: […] 176.14 + /- 4.04 mg/dL); type: functional; conditions: 0.5 h
Rattus norvegicus [18] = test: Anti-diabetic activity in normal Wistar rat model assessed as blood glucose level at 20 mg/kg, po followed by treated administered 3 mg/kg orally measured after 90 mins by Oral glucose tolerance test (reference value: 134.11 + /- 4.64 mg/dL); type: functional; conditions: 1.5 h
Rattus norvegicus [19] = test: Reduction of alkaline phosphatase (ALP) level in STZ-induced type 2 diabetes male Wistar albino rat model at 10 mg/kg, po measured after 4 weeks by hepatic function test; type: functional, organism-based
Rattus norvegicus [20] = test: Reduction of serum glutamate pyruvate transaminase (SGPT) level in STZ-induced type 2 diabetes male Wistar albino rat model at 10 mg/kg, po measured after 4 weeks by hepatic function test; type: functional, organism-based
Rattus norvegicus [21] = test: Reduction of serum glutamate oxaloacetate transaminase (SGOT) level in STZ-induced type 2 diabetes male Wistar albino rat model at 10 mg/kg, po measured after 4 weeks by hepatic function test; type: functional, organism-based
Rattus norvegicus [22] = test: Reduction of serum glutamate pyruvate transaminase (SGPT) level in STZ-induced type 2 diabetes male Wistar albino rat model at 20 mg/kg, po measured after 4 weeks by hepatic function test; type: functional, organism-based
Rattus norvegicus [23] = test: Antihyperlipidemic effect in STZ-induced type 2 diabetes male Wistar albino rat model assessed as total cholesterol level at 20 mg/kg, po measured after 4 weeks (reference value: 227.04 +/- 4.10 mg/dL); type: functional
Rattus norvegicus [24] = test: Antihyperlipidemic effect in STZ-induced type 2 diabetes male Wistar albino rat model assessed as LDL level at 20 mg/kg, po measured after 4 weeks (reference value: 184.65 +/- 4.57 mg/dL); type: functional
[25] = Acute toxicity in Balb/C mouse assessed as morphological changes in nose at 1250 to 2000 mg/kg, po; type: organism-based; conditions: in vivo, dose 1250-2000 mg/kg
[26] = Acute toxicity in Balb/C mouse assessed as morphological changes in fur at 1250 to 2000 mg/kg, po; type: organism-based; conditions: in vivo, dose 1250-2000 mg/kg
[27] = Acute toxicity in Balb/C mouse assessed as morphological changes in tremors at 1250 to 2000 mg/kg, po; type: organism-based; conditions: in vivo, dose 1250-2000 mg/kg
[28] = Acute toxicity in Balb/C mouse assessed as morphological changes in diarrhea at 1250 to 2000 mg/kg, po; type: organism-based; conditions: in vivo, dose 1250-2000 mg/kg
[29] = Acute toxicity in Balb/C mouse assessed as morphological changes in convulsions at 1250 to 2000 mg/kg, po; type: organism-based; conditions: in vivo, dose 1250-2000 mg/kg
Dipeptidyl peptidase 9 = Dipeptidyl peptidase 9 (Homo sapiens, UniProt Q86TI2); test: Inhibition of DPP9 (unknown origin) assessed as hydrolysis rate using Gly-pro-p-nitroanilide as substrate measured after 20 mins incubation by […] assay
Dipeptidyl peptidase 8 = Dipeptidyl peptidase 8 (Homo sapiens, UniProt Q6V1X1); test: Inhibition of DPP8 (unknown origin) assessed as hydrolysis rate using Gly-pro-p-nitroanilide as substrate measured after 20 mins incubation by […] assay
[30] = Acute toxicity in Balb/C mouse assessed as morphological changes in unusual behavior at 1250 to 2000 mg/kg, po; type: organism-based; conditions: in vivo, dose 1250-2000 mg/kg
Rattus norvegicus [31] = test: Reduction of insulin level in STZ-induced type 2 diabetes male Wistar albino rat model at 20 mg/kg, po measured after 4 weeks by hepatic function test; type: functional, organism-based
[32] = Acute toxicity in Balb/C mouse assessed as morphological changes in skin at 1250 to 2000 mg/kg, po; type: organism-based; conditions: in vivo, dose 1250-2000 mg/kg
[33] = Acute toxicity in Balb/C mouse assessed as changes in general appearance at 1250 to 2000 mg/kg, po; type: organism-based; conditions: in vivo, dose 1250-2000 mg/kg
[34] = Acute toxicity in Balb/C mouse assessed as morphological changes in salvation at 1250 to 2000 mg/kg, po; type: organism-based; conditions: in vivo, dose 1250-2000 mg/kg
[35] = Acute toxicity in Balb/C mouse assessed as morphological changes in eyes at 1250 to 2000 mg/kg, po; type: organism-based; conditions: in vivo, dose 1250-2000 mg/kg

Chain of Dipeptidyl peptidase 4 (P27487 whole entry): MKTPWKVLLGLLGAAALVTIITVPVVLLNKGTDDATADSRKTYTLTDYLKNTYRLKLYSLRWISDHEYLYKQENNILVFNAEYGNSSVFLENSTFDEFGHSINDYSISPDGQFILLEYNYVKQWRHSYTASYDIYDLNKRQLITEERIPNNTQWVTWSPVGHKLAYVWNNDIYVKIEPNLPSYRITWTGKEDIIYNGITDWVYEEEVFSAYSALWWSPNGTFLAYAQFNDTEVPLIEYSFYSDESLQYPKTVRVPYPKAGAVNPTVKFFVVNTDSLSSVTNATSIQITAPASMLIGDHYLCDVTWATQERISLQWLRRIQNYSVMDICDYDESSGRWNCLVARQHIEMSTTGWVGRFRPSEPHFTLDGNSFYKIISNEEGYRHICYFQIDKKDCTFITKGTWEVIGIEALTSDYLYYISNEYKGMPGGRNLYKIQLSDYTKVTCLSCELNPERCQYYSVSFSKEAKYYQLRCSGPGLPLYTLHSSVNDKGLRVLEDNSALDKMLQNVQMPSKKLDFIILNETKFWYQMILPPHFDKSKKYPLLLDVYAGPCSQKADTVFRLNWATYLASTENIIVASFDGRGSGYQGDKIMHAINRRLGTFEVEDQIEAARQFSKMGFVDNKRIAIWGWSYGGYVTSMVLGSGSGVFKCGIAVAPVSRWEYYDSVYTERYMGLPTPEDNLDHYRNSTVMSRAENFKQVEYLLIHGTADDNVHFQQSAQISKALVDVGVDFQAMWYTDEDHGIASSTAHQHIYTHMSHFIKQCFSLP
Chain of Dipeptidyl peptidase 8 (Q6V1X1 whole entry): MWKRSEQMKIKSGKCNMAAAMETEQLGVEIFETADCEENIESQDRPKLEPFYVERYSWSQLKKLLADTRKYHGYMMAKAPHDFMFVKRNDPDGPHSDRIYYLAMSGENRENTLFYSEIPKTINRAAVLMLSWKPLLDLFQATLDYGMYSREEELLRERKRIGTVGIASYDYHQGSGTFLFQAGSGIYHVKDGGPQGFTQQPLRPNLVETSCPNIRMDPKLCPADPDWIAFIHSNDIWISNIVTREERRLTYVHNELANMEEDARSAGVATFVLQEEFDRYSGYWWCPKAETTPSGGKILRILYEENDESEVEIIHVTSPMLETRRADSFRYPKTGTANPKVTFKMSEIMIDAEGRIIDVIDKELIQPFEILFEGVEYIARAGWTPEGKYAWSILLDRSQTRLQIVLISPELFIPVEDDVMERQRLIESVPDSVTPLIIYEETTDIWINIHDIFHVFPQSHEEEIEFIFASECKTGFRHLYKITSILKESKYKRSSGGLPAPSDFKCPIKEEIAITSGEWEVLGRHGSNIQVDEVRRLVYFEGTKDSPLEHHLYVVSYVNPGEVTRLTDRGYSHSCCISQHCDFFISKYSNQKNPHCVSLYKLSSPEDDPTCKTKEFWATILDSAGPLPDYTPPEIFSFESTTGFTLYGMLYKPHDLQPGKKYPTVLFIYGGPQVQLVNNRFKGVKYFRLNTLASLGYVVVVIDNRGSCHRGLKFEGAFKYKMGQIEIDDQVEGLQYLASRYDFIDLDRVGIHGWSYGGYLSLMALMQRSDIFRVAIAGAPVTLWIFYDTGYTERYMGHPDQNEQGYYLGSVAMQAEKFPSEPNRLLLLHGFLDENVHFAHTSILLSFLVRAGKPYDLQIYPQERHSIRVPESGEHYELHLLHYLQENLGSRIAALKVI
Chain of Dipeptidyl peptidase 9 (Q86TI2 whole entry): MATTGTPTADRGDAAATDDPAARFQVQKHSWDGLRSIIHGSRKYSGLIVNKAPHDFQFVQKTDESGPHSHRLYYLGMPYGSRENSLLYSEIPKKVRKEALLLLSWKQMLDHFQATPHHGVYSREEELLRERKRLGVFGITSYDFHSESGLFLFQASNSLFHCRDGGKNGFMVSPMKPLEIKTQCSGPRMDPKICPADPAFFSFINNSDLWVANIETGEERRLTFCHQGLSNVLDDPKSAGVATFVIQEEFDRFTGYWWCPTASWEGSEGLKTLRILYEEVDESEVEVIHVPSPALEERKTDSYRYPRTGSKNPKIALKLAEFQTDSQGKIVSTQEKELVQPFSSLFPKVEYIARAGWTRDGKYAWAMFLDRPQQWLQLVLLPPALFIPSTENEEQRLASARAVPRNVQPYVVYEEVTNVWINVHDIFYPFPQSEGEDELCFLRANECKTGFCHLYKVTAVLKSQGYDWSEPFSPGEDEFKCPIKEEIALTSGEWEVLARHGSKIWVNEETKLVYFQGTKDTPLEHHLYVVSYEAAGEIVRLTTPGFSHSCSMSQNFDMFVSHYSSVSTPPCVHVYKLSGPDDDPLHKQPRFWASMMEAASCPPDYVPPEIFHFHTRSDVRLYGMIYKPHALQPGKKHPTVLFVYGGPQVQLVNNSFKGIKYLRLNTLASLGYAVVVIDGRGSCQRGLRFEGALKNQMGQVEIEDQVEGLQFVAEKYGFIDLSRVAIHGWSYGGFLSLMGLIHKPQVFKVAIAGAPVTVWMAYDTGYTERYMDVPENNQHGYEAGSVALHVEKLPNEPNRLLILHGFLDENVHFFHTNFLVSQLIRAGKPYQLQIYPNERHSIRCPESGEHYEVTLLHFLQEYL

- IC50 (Dipeptidyl peptidase 4): 2540 nM
Structure (SMILES): CC1=C([N+](=O)[O-])C(c2ccc(F)c(F)c2)N=C(N)N1C(=O)CN1CCC[C@H]1C(=O)O (stereo partly specified)

- IC50 (Dipeptidyl peptidase 4): 769 nM
Structure (SMILES): Cc1nc(N2Cc3cn(S(C)(=O)=O)nc3C2)nc(C)c1CC(=O)O

- IC50 (Dipeptidyl peptidase 4): 90 nM
Structure (SMILES): CC1=C(C(=O)O)C(c2ccc(F)c(F)c2)N=C(N)N1C(=O)CN1CCCC(N)C1 (stereo unspecified)
- Activity (Rattus norvegicus [1]): 106.76 mg/dL
- Activity (Rattus norvegicus [2]): Active
- Activity (Rattus norvegicus [3]): 123.32 mg/dL
- Activity (Rattus norvegicus [4]): 114.65 mg/dL
- Activity (Rattus norvegicus [5]): 56.98 mg/dL
- Activity (Rattus norvegicus [6]): 148.09 mg/dL
- Activity (Rattus norvegicus [7]): 108.35 mg/dL
- Activity (Rattus norvegicus [8]): 103.07 mg/dL
- Activity (Rattus norvegicus [9]): 118.96 mg/dL
- Activity (Rattus norvegicus [10]): 101.44 mg/dL
- Activity (Rattus norvegicus [11]): 110.72 mg/dL
- Activity (Rattus norvegicus [12]): Active
- Activity (Rattus norvegicus [13]): 48.23 mg/dL
- Activity (Rattus norvegicus [14]): 115.15 mg/dL
- Activity (Rattus norvegicus [15]): 107.57 mg/dL
- Activity (Rattus norvegicus [16]): 143.78 mg/dL
- Activity (Rattus norvegicus [17]): 118.62 mg/dL
- Activity (Rattus norvegicus [18]): 114.84 mg/dL
- Activity (Rattus norvegicus [19]): Active
- Activity (Rattus norvegicus [20]): Active
- Activity (Rattus norvegicus [21]): Active
- Activity (Rattus norvegicus [22]): Active
- Activity (Rattus norvegicus [23]): 134.45 mg/dL
- Activity (Rattus norvegicus [24]): 107.12 mg/dL

- IC50 (Dipeptidyl peptidase 4): 1400 nM
Structure (SMILES): Cc1nc(N2CCCC(N)C2)nc(C)c1CC(=O)O (stereo unspecified)

- IC50 (Dipeptidyl peptidase 4): 1060 nM
Structure (SMILES): CC1=C(C(=O)O)C(c2ccc(F)c(F)c2)N=C(N)N1C(=O)CN1CCC[C@H]1C(=O)O (stereo partly specified)

- IC50 (Dipeptidyl peptidase 4): 942 nM
Structure (SMILES): CC1=C(CC(=O)N2Cc3cn(S(C)(=O)=O)nc3C2)C(C)NC(=O)N1 (stereo unspecified)

Structure (SMILES): CC1=C([N+](=O)[O-])C(c2ccc(F)c(F)c2)N=C(N)N1C(=O)CN1CCn2c(nnc2C(F)(F)F)C1 (stereo unspecified)
- Activity (Rattus norvegicus [1]): 113.91 mg/dL
- Activity (Rattus norvegicus [2]): Active
- Activity [25]: Non-Toxic
- Activity [26]: Non-Toxic
- Activity (Rattus norvegicus [3]): 134.87 mg/dL
- Activity [27]: Non-Toxic
- Activity (Rattus norvegicus [4]): 119.45 mg/dL
- Activity (Rattus norvegicus [5]): 54.23 mg/dL
- Activity (Rattus norvegicus [6]): 154.87 mg/dL
- Activity (Rattus norvegicus [7]): 117.43 mg/dL
- Activity [28]: Non-Toxic
- Activity (Rattus norvegicus [8]): 104.01 mg/dL
- Activity (Rattus norvegicus [9]): 115.67 mg/dL
- Activity [29]: Non-Toxic
- IC50 (Dipeptidyl peptidase 9): 1970 nM
- Activity (Rattus norvegicus [10]): 103.88 mg/dL
- IC50 (Dipeptidyl peptidase 8): 1340 nM
- Activity (Rattus norvegicus [11]): 111.1 mg/dL
- Activity (Rattus norvegicus [12]): Active
- Activity (Rattus norvegicus [13]): 46.34 mg/dL
- Activity [30]: Non-Toxic
- Activity (Rattus norvegicus [14]): 117.46 mg/dL
- Activity (Rattus norvegicus [15]): 109.45 mg/dL
- Activity (Rattus norvegicus [16]): 149.76 mg/dL
- Activity (Rattus norvegicus [17]): 120.87 mg/dL
- Activity (Rattus norvegicus [31]): Active
- Activity [32]: Non-Toxic
- Activity (Rattus norvegicus [18]): 107.56 mg/dL
- Activity [33]: Non-Toxic
- Activity [34]: Non-Toxic
- Activity [35]: Non-Toxic
- Activity (Rattus norvegicus [19]): Active
- IC50 (Dipeptidyl peptidase 4): 85 nM
- Activity (Rattus norvegicus [20]): Active
- Activity (Rattus norvegicus [21]): Active
- Activity (Rattus norvegicus [22]): Active
- Activity (Rattus norvegicus [23]): 137.56 mg/dL
- Activity (Rattus norvegicus [24]): 115.89 mg/dL

- IC50 (Dipeptidyl peptidase 4): 478 nM
Structure (SMILES): CC1=C(CC(=O)N2Cc3cn(S(C)(=O)=O)nc3C2)C(c2ccc(F)c(F)c2)NC(=O)N1 (stereo unspecified)

- IC50 (Dipeptidyl peptidase 4): 821 nM
Structure (SMILES): CC1=C([N+](=O)[O-])C(c2ccc(F)c(F)c2)N=C(N)N1C(=O)CN1CCCC(N)C1 (stereo unspecified)

- IC50 (Dipeptidyl peptidase 4): 1060 nM
Structure (SMILES): CC1=C(CC(=O)N2CCn3c(nnc3C(F)(F)F)C2)C(c2ccc(F)c(F)c2)NC(=O)N1 (stereo unspecified)
